Test results published in patent US20200330420A1, “LONG CHAIN FATTY ACID FORMULATIONS AND THEIR USE IN INHIBITING SALMONELLA INFECTION” (priority 2019, published 2020).

Key:
hilA expression = experiment: Luciferase assay, hilA::luxCDABE reporter fusion; format: cell-based
Excerpt: (§1) Strains. Salmonella enterica subsp. enterica serovar Typhimurium 14028s, and mutants thereof, were used throughout. Deletion mutants were constructed as previously described (K. A. Datsenko et al., PNAS USA, 97(12), 6640-6645, 2000). Briefly, PCR fragments of kanamycin and chloramphenicol resistance genes containing 40 base pair homology extensions flanking the gene of interest were generated using pKD4 and pKD3 plasmids. The PCR fragments were transformed into a strain expressing λ Red recombinase. Loss of the gene of interest was confirmed using PCR. Unmarked mutants were generated using a helper plasmid pCP20 carrying a gene encoding the FLP recombinase. Marked deletions and constructs were transferred using bacteriophage P22 transduction (N. L. Sternberg et al., Methods Enzymol., 204, 18-43, 1991).
(§2) Luciferase assays. Strains carrying luxCDABE reporter fusions were grown overnight in LB with the necessary antibiotics. Overnight cultures were diluted 100-fold into M9 minimal medium with glucose, antibiotics and 1 mM nonanoic acid (added to repress SPI invasion gene expression to eliminate background luminescence), and grown overnight. The cultures were washed three times with PBS. Bacteria were inoculated at a starting OD600 of 0.02 into 150 μL of LB containing 100 mM MOPS pH 6.7, the necessary antibiotics and compounds to be tested, in a sealed black-walled 96 well plate. Luminescence was measured every 30 minutes for 24 hours using a Biotek Synergy™ H1 microplate reader.

HilD [1] = molecular target: T1, HilD (Salmonella typhimurium, UniProt P0CL08); experiment: HilD half-life assay (western blot of HilD-3xFLAG); format: cell-based; design: expressed in transfected cells; host or cells: Salmonella Typhimurium 14028s derivative carrying PtetRA-hilD-3xFLAG, with Lon present or absent; settings: Lon mutant (absence of Lon); 20 μM; FIG. 5A
T1 sequence (P0CL08 whole entry): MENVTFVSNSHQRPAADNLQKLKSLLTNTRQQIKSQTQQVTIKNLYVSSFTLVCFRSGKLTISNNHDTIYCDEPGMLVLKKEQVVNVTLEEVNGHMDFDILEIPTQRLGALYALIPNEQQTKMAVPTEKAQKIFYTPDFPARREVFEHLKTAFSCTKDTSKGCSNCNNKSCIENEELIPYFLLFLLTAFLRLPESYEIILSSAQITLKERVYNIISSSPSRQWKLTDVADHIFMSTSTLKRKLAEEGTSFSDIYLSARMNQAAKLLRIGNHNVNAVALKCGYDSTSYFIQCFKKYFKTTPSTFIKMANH

RtsA = experiment: Electrophoretic mobility shift assay, RtsA binding to hilA promoter DNA; design: species or system Salmonella; settings: FIG. 7
Protocol: (§3) Electrophoretic mobility shift assays (EMSAs). EMSAs were performed as previously described (Y. A. Golubeva et al., M Bio, 7(1), 2016). Briefly, 10 nM of hilA promoter DNA was mixed with 150 μM HilD, HilC or RtsA in a binding buffer containing 20 mM KCl, 1% glycerol, 1 mM DTT, 0.04 mM EDTA, 0.05% Tergitol™ NP-40 and 20 mM HEPES, pH 7.3. cis-2-hexadecenoic acid was tested at concentrations of […] Binding was performed at room temperature for 20 minutes. Samples were separated on 6% Novex® TBE DNA retardation gels, and DNA was stained using SYBR® green (Invitrogen).

sopB expression = experiment: Luciferase assay, sopB::luxCDABE reporter fusion; format: cell-based; settings: ΔhilD mutant, rtsA under tetracycline-inducible promoter; 20 μM; FIG. 4A
Excerpt: as §1
as §2, with “Bacteria were inoculated at a starting OD600 of 0.02 into 150 μL of LB containing 100 mM MOPS pH 6.7, the necessary antibiotics and compounds to be tested, in a sealed black-walled 96 well plate.” left out

HilC = HilC (Salmonella typhimurium, UniProt P0CL09); experiment: Electrophoretic mobility shift assay, HilC binding to hilA promoter DNA; settings: FIG. 7
HilC, sequence (P0CL09 whole entry): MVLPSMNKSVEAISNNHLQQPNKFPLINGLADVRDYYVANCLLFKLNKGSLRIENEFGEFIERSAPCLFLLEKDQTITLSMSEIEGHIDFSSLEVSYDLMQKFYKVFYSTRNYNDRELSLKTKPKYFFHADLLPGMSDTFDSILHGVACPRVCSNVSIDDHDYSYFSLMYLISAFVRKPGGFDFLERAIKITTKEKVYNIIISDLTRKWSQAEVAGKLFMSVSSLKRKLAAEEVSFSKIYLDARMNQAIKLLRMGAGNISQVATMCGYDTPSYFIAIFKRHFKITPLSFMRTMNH
Protocol: as §3

HilD [2] = molecular target: T1, HilD; experiment: Electrophoretic mobility shift assay, HilD binding to hilA promoter DNA; design: 6xHis-NusA (followed by an HRV 3C protease site) (N, cleaved yes); made in house; host or cells: E. coli BL21(DE3), vector pCAV4; settings: FIG. 7
[3] = chain length comparison, FIG. 1E
[4] = hilD only: ΔrtsA ΔhilC, hilD under tetracycline-inducible promoter, 20 μM, FIG. 4C
[5] = 10, 25, 50 and 75 μM fatty acid

Question: For CCCCCCCCCCCCC/C=C\C(=O)OC [cis-2-hexadecenoic acid methyl ester, reference compound], which “repression of hilA expression” value (hilA expression; 20 μM methyl ester, FIG. 2A) is on record?
Answer: not to significantly repress hilA expression

Question: Which results are given for CCCCCCCCCCCCC/C=C\C(=O)O [c2-HDA, Cis-2-hexadecenoic acid]?
Answer: effect on HilD stability (HilD [1]): no effect on its stability; repression of hilA expression (hilA expression; 1 μM, FIG. 1B): 80 fold; reduction of hilA expression (hilA expression; [3]): 159 fold; reduction of hilA expression (hilA expression; hilC only (tetracycline-inducible), null hilD and rtsA, FIG. 6B): 20 fold; repression of hilA in a hilD mutant (hilA expression; hilD mutant, FIG. 4A): modest repression; repression of hilA expression (hilA expression; [4]): 78 fold; reduction of hilA expression (hilA expression; rtsA only (tetracycline-inducible), null hilD and hilC, FIG. 6A): 13 fold; repression of hilA expression (hilA expression; Δlon mutation, 20 μM, FIG. 5B): continued to repress hilA expression; binding of RtsA to the hilA promoter (RtsA; 100 μM fatty acid): prevented binding to the hilA promoter; binding of RtsA to the hilA promoter (RtsA; [5]): partially; repression of sopB expression (sopB expression): 11 fold; binding of HilC to the hilA promoter (HilC; 100 μM fatty acid): prevented binding to the hilA promoter; binding of HilC to the hilA promoter (HilC; [5]): partially; binding of HilD to the hilA promoter (HilD [2]; 20 μM fatty acid, 10 nM hilA promoter DNA): completely inhibited from binding hilA promoter DNA; binding of HilD to the hilA promoter (HilD [2]; 1, 2, 5 and 10 μM fatty acid): partially

Question: For CCCCCCC/C=C\C(=O)O [cis-2-decenoic acid], which “reduction of hilA expression” value (hilA expression; [3]) is on record?
Answer: 28%

Question: With CCCCCCCCCCCCCCCCC/C=C\C(=O)O [cis-2-eicosenoic acid] as the compound, how does the “reduction of hilA expression” value (hilA expression; [3]) read?
Answer: 10 fold

Question: And the “repression of hilA expression” value (hilA expression; [4])?
Answer: 3 fold

Question: How did the “reduction of hilA expression” value (hilA expression; [3]) turn out when CCCCCCCCC/C=C\C(=O)O [cis-2-dodecenoic acid] was run?
Answer: 3 fold

Question: How did the “repression of hilA expression” value (hilA expression; [4]) turn out when CCCCCCCC/C=C\CCCCCCCC(=O)O [oleic acid, cis-9-octadecenoic acid, reference compound] was run?
Answer: 1.2 fold

Question: CCCCCCCCCCCCC/C=C/C(=O)O [trans-2-hexadecenoic acid, reference compound] was tested. Which “less potent in repressing hilA than the cis-isomer” value (hilA expression; FIG. 1A, 20 μM fatty acids per legend) did it give?
Answer: 31 fold

Question: How did the “repression of hilA expression” value (hilA expression; 40 μM methyl ester, FIG. 2B) turn out when CCCCCCCCCCCCCCCCC/C=C\C(=O)OC [cis-2-eicosenoic acid methyl ester, reference compound] was run?
Answer: not to significantly repress hilA expression
